# Measurements: PubChem BioAssay (NCI)
#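 48-hour exposure; five concentrations; linearly interpolated endpoints. TGI: concentration producing complete growth inhibition.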
# Tests used:
# Assay in all cases: NCI tumour cell line growth inhibition, 48 h
# MCF7 breast = system: MCF7 breast
# KM12 colon = system: KM12 colon
# MALME-3M melanoma = system: MALME-3M melanoma
# MDA-N = system: MDA-N
# MOLT-4 leukemia = system: MOLT-4 leukemia
# LOX IMVI melanoma = system: LOX IMVI melanoma
# 786-0 renal = system: 786-0 renal
# NCI-H23 lung = system: NCI-H23 lung
# SNB-75 CNS = system: SNB-75 CNS
# SN12C renal = system: SN12C renal
# HOP-92 NSCLC = system: HOP-92 NSCLC
# T-47D breast = system: T-47D breast
# A498 renal = system: A498 renal
# DLD-1 colon = system: DLD-1 colon
# HL-60(TB) leukemia = system: HL-60(TB) leukemia
# M14 melanoma = system: M14 melanoma
# SK-MEL-5 melanoma = system: SK-MEL-5 melanoma
# SF-268 CNS = system: SF-268 CNS
# SR leukemia = system: SR leukemia
# SNB-19 CNS = system: SNB-19 CNS
# OVCAR-8 ovarian = system: OVCAR-8 ovarian
# NCI-H226 lung = system: NCI-H226 lung
# OVCAR-5 ovarian = system: OVCAR-5 ovarian
# HOP-62 NSCLC = system: HOP-62 NSCLC
# DMS 114 small cell lung = system: DMS 114 small cell lung
# HT29 colon = system: HT29 colon
# PC-3 prostate = system: PC-3 prostate
# U251 CNS = system: U251 CNS
# HOP-18 NSCLC = system: HOP-18 NSCLC
# UO-31 renal = system: UO-31 renal
# HCT-116 colon = system: HCT-116 colon
# SF-295 CNS = system: SF-295 CNS
# HCT-15 colon = system: HCT-15 colon
# A549 NSCLC = system: A549 NSCLC
# ACHN renal = system: ACHN renal
# MDA-MB-231 breast = system: MDA-MB-231 breast
# MDA-MB-435 = system: MDA-MB-435
# HS 578T breast = system: HS 578T breast
# SF-539 CNS = system: SF-539 CNS
# TK-10 renal = system: TK-10 renal
# NCI-H522 lung = system: NCI-H522 lung
# CAKI-1 renal = system: CAKI-1 renal
# OVCAR-3 ovarian = system: OVCAR-3 ovarian
# OVCAR-4 ovarian = system: OVCAR-4 ovarian
# LXFL 529 NSCLC = system: LXFL 529 NSCLC
# EKVX NSCLC = system: EKVX NSCLC
# XF 498 CNS = system: XF 498 CNS
# HCC-2998 colon = system: HCC-2998 colon
# SW-620 colon = system: SW-620 colon
# M19-MEL melanoma = system: M19-MEL melanoma
# NCI/ADR-RES ovarian = system: NCI/ADR-RES ovarian
# K-562 leukemia = system: K-562 leukemia
# RPMI-8226 leukemia = system: RPMI-8226 leukemia
# UACC-257 melanoma = system: UACC-257 melanoma
# NCI-H460 lung = system: NCI-H460 lung
# COLO 205 colon = system: COLO 205 colon
# SK-MEL-2 melanoma = system: SK-MEL-2 melanoma
# RXF 393 renal = system: RXF 393 renal
# KM20L2 colon = system: KM20L2 colon
# BT-549 breast = system: BT-549 breast
# CCRF-CEM leukemia = system: CCRF-CEM leukemia
# DU-145 prostate = system: DU-145 prostate
# SK-OV-3 ovarian = system: SK-OV-3 ovarian
# IGROV1 ovarian = system: IGROV1 ovarian
# DMS 273 small cell lung = system: DMS 273 small cell lung
# RXF-631 renal = system: RXF-631 renal
# UACC-62 melanoma = system: UACC-62 melanoma
# SNB-78 CNS = system: SNB-78 CNS
# SK-MEL-28 melanoma = system: SK-MEL-28 melanoma
smiles,measurement,setting,value
COc1ccc2c(c1)c1ccc3c(c1n2C)C(=O)C=CC3=O,TGI,MCF7 breast,15.5 µM
same,TGI,KM12 colon,35.8 µM
same,TGI,MALME-3M melanoma,18.8 µM
same,TGI,MDA-N,24.1 µM
same,TGI,MOLT-4 leukemia,4.5 µM
same,TGI,LOX IMVI melanoma,14.9 µM
same,TGI,786-0 renal,14.7 µM
same,TGI,NCI-H23 lung,32.2 µM
same,TGI,SNB-75 CNS,68.9 µM
same,TGI,SN12C renal,15.6 µM
same,TGI,HOP-92 NSCLC,14.5 µM
same,TGI,T-47D breast,6.25 µM
same,TGI,A498 renal,53.5 µM
same,TGI,DLD-1 colon,20.9 µM
same,TGI,HL-60(TB) leukemia,4.94 µM
same,TGI,M14 melanoma,24.3 µM
same,TGI,SK-MEL-5 melanoma,43.6 µM
same,TGI,SF-268 CNS,31.8 µM
same,TGI,SR leukemia,5.59 µM
same,TGI,SNB-19 CNS,53 µM
same,TGI,OVCAR-8 ovarian,26.6 µM
same,TGI,NCI-H226 lung,32.8 µM
same,TGI,OVCAR-5 ovarian,35 µM
same,TGI,HOP-62 NSCLC,66.5 µM
same,TGI,DMS 114 small cell lung,47.4 µM
same,TGI,HT29 colon,34.9 µM
same,TGI,PC-3 prostate,26.2 µM
same,TGI,U251 CNS,36 µM
same,TGI,HOP-18 NSCLC,24.7 µM
same,TGI,UO-31 renal,24.5 µM
same,TGI,HCT-116 colon,14 µM
same,TGI,SF-295 CNS,56.9 µM
same,TGI,HCT-15 colon,10.9 µM
same,TGI,A549 NSCLC,68.7 µM
same,TGI,ACHN renal,14.9 µM
same,TGI,MDA-MB-231 breast,12.1 µM
same,TGI,MDA-MB-435,22.7 µM
same,TGI,HS 578T breast,28.1 µM
same,TGI,SF-539 CNS,28 µM
same,TGI,TK-10 renal,17.4 µM
same,TGI,NCI-H522 lung,7.35 µM
same,TGI,CAKI-1 renal,18.6 µM
same,TGI,OVCAR-3 ovarian,20.5 µM
same,TGI,OVCAR-4 ovarian,15.6 µM
same,TGI,LXFL 529 NSCLC,30.2 µM
same,TGI,EKVX NSCLC,35.7 µM
same,TGI,XF 498 CNS,32.1 µM
same,TGI,HCC-2998 colon,34.6 µM
same,TGI,SW-620 colon,10.7 µM
same,TGI,M19-MEL melanoma,> 58.9 µM
same,TGI,NCI/ADR-RES ovarian,42.7 µM
same,TGI,K-562 leukemia,4.89 µM
same,TGI,RPMI-8226 leukemia,7.35 µM
same,TGI,UACC-257 melanoma,24.9 µM
same,TGI,NCI-H460 lung,61.2 µM
same,TGI,COLO 205 colon,19.8 µM
same,TGI,SK-MEL-2 melanoma,34.7 µM
same,TGI,RXF 393 renal,10.4 µM
same,TGI,KM20L2 colon,> 57.3 µM
same,TGI,BT-549 breast,10.3 µM
same,TGI,CCRF-CEM leukemia,2.47 µM
same,TGI,DU-145 prostate,15 µM
same,TGI,SK-OV-3 ovarian,41.3 µM
same,TGI,IGROV1 ovarian,28.3 µM
same,TGI,DMS 273 small cell lung,> 56.3 µM
same,TGI,RXF-631 renal,> 45.5 µM
same,TGI,UACC-62 melanoma,29.3 µM
same,TGI,SNB-78 CNS,45.5 µM
same,TGI,SK-MEL-28 melanoma,22.5 µM
CSc1nc2c(nc(N)n2C2OC(CO)C(O)C(O)C2O)c(=O)[nH]1 (stereo unspecified),TGI,KM12 colon,> 100 µM
same,TGI,MALME-3M melanoma,> 100 µM
same,TGI,MOLT-4 leukemia,> 100 µM
same,TGI,LOX IMVI melanoma,> 100 µM
same,TGI,786-0 renal,> 100 µM
same,TGI,NCI-H23 lung,> 100 µM
same,TGI,SNB-75 CNS,> 100 µM
same,TGI,SN12C renal,> 100 µM
same,TGI,HOP-92 NSCLC,> 100 µM
same,TGI,A498 renal,> 100 µM
same,TGI,DLD-1 colon,> 100 µM
same,TGI,HL-60(TB) leukemia,> 100 µM
same,TGI,M14 melanoma,> 100 µM
same,TGI,SK-MEL-5 melanoma,> 100 µM
same,TGI,SF-268 CNS,> 100 µM
same,TGI,SR leukemia,> 100 µM
same,TGI,SNB-19 CNS,> 100 µM
same,TGI,OVCAR-8 ovarian,> 100 µM
same,TGI,NCI-H226 lung,> 100 µM
same,TGI,HOP-62 NSCLC,> 100 µM
same,TGI,DMS 114 small cell lung,> 100 µM
same,TGI,HT29 colon,> 100 µM
same,TGI,U251 CNS,> 100 µM
same,TGI,HOP-18 NSCLC,> 100 µM
same,TGI,UO-31 renal,> 100 µM
same,TGI,HCT-116 colon,> 100 µM
same,TGI,SF-295 CNS,> 100 µM
same,TGI,A549 NSCLC,> 100 µM
same,TGI,ACHN renal,> 100 µM
same,TGI,SF-539 CNS,> 100 µM
same,TGI,TK-10 renal,> 100 µM
same,TGI,NCI-H522 lung,> 100 µM
same,TGI,CAKI-1 renal,> 100 µM
same,TGI,OVCAR-3 ovarian,> 100 µM
same,TGI,OVCAR-4 ovarian,> 100 µM
same,TGI,LXFL 529 NSCLC,> 100 µM
same,TGI,EKVX NSCLC,> 100 µM
same,TGI,XF 498 CNS,> 100 µM
same,TGI,HCC-2998 colon,> 100 µM
same,TGI,SW-620 colon,> 100 µM
same,TGI,M19-MEL melanoma,> 100 µM
same,TGI,K-562 leukemia,> 100 µM
same,TGI,UACC-257 melanoma,> 100 µM
same,TGI,NCI-H460 lung,> 100 µM
same,TGI,COLO 205 colon,> 100 µM
same,TGI,RXF 393 renal,> 100 µM
same,TGI,KM20L2 colon,> 100 µM
same,TGI,CCRF-CEM leukemia,> 100 µM
same,TGI,SK-OV-3 ovarian,> 100 µM
same,TGI,IGROV1 ovarian,> 100 µM
same,TGI,RXF-631 renal,> 100 µM
same,TGI,UACC-62 melanoma,> 100 µM
same,TGI,SNB-78 CNS,> 100 µM
same,TGI,SK-MEL-28 melanoma,> 100 µM
COc1ccc(/C=C/c2cc(OC)c(OC)c(OC)c2)cc1OC,TGI,KM12 colon,> 100 µM
same,TGI,MALME-3M melanoma,> 100 µM
same,TGI,MOLT-4 leukemia,> 100 µM
same,TGI,LOX IMVI melanoma,> 100 µM
same,TGI,786-0 renal,> 100 µM
same,TGI,NCI-H23 lung,> 100 µM
same,TGI,SNB-75 CNS,> 100 µM
same,TGI,SN12C renal,> 100 µM
same,TGI,HOP-92 NSCLC,> 100 µM
same,TGI,A498 renal,> 100 µM
same,TGI,DLD-1 colon,> 100 µM
same,TGI,HL-60(TB) leukemia,> 100 µM
same,TGI,M14 melanoma,> 100 µM
same,TGI,SK-MEL-5 melanoma,> 100 µM
same,TGI,SF-268 CNS,> 100 µM
same,TGI,SR leukemia,> 100 µM
same,TGI,SNB-19 CNS,> 100 µM
same,TGI,OVCAR-8 ovarian,> 100 µM
same,TGI,NCI-H226 lung,> 100 µM
same,TGI,OVCAR-5 ovarian,> 100 µM
same,TGI,HOP-62 NSCLC,> 100 µM
same,TGI,DMS 114 small cell lung,> 100 µM
same,TGI,HT29 colon,> 100 µM
same,TGI,U251 CNS,> 100 µM
same,TGI,HOP-18 NSCLC,> 100 µM
same,TGI,UO-31 renal,> 100 µM
same,TGI,HCT-116 colon,> 100 µM
same,TGI,SF-295 CNS,> 100 µM
same,TGI,HCT-15 colon,> 100 µM
same,TGI,A549 NSCLC,> 100 µM
same,TGI,ACHN renal,> 100 µM
same,TGI,SF-539 CNS,> 100 µM
same,TGI,TK-10 renal,> 100 µM
same,TGI,NCI-H522 lung,> 100 µM
same,TGI,CAKI-1 renal,> 100 µM
same,TGI,OVCAR-3 ovarian,> 100 µM
same,TGI,OVCAR-4 ovarian,> 100 µM
same,TGI,LXFL 529 NSCLC,> 100 µM
same,TGI,EKVX NSCLC,> 100 µM
same,TGI,XF 498 CNS,> 100 µM
same,TGI,HCC-2998 colon,> 100 µM
same,TGI,SW-620 colon,> 100 µM
same,TGI,K-562 leukemia,> 100 µM
same,TGI,RPMI-8226 leukemia,> 100 µM
same,TGI,UACC-257 melanoma,> 100 µM
same,TGI,NCI-H460 lung,> 100 µM
same,TGI,COLO 205 colon,> 100 µM
same,TGI,SK-MEL-2 melanoma,> 100 µM
same,TGI,RXF 393 renal,> 100 µM
same,TGI,KM20L2 colon,> 100 µM
same,TGI,CCRF-CEM leukemia,> 100 µM
same,TGI,SK-OV-3 ovarian,> 100 µM
same,TGI,IGROV1 ovarian,> 100 µM
same,TGI,DMS 273 small cell lung,> 100 µM
same,TGI,RXF-631 renal,> 100 µM
same,TGI,UACC-62 melanoma,> 100 µM
same,TGI,SNB-78 CNS,91.9 µM
same,TGI,SK-MEL-28 melanoma,> 100 µM
